One test concerns the target CDK2/Cyclin E1 (Homo sapiens (Human), UniProt P24941). The test can be described thus: biochemical. The note with it: CDK2_Ki (nM), phosphorylated CDK2/Cyclin E1, 150 μM ATP, Morrison tight-binding fit.
A further test deals with CDK6/Cyclin D1 (Homo sapiens (Human), UniProt Q00534). The test can be described thus: biochemical. The note with it: CDK6_Ki (nM), non-phosphorylated CDK6/Cyclin D1, 2 mM ATP, Morrison fit.

Molecules are shown by their SMILES.

Sequence of CDK6/Cyclin D1 (Q00534 whole entry): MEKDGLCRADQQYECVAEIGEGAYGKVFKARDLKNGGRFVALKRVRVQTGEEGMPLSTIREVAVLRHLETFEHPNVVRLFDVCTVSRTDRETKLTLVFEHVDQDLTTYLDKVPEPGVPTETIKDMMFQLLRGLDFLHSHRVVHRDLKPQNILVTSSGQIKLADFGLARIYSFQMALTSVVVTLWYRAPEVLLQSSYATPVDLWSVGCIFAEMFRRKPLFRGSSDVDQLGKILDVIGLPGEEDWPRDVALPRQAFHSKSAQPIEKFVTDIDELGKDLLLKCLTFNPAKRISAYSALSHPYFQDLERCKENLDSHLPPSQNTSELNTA
Sequence of CDK6/Cyclin D1 (P24385 whole entry partner): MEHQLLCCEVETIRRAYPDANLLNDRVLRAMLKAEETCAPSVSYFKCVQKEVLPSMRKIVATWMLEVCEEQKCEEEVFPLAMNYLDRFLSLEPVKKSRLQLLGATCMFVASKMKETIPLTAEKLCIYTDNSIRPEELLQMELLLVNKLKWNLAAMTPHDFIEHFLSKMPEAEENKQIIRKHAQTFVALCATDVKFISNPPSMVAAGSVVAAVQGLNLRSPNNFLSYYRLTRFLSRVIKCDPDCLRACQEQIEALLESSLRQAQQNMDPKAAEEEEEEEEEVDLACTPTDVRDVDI
Procedure for CDK2/Cyclin E1: The assay was initiated with the addition of ATP, following a fifteen minutes pre-incubation of enzyme and inhibitor at room temperature in the reaction mixture. The reaction was stopped after 45 minutes at room temperature by the addition of 50 μL of 80 mM EDTA, pH 7.5.

On to `C[C@@]1(O)CCC[C@H]1n1c(=O)ccc2cnc(NC3CCN(S(=O)(=O)CC4CC4)CC3)nc21` (single isomer, unassigned) [Example 90, (−)-2-({1-[(cyclopropylmethyl)sulfonyl]piperidin-4-yl}amino)-8-[(1R*,2R*)-2-hydroxy-2-methylcyclopentyl]pyrido[2,3-d]pyrimidin-7(8H)-one], for which the results for the Ki on CDK2/Cyclin E1 and on CDK6/Cyclin D1 were 0.25 nM and 0.88 nM, respectively.
`CS(=O)(=O)N1CCC(Nc2ncc3cc(CC(N)=O)c(=O)n([C@H]4CCC[C@H](O)C4)c3n2)CC1` (single isomer, unassigned) [Example 214, (−)-2-(8-[(1R*,2R*)-3-hydroxycyclohexyl]-2-{[1-(methylsulfonyl)piperidin-4-yl]amino}-7-oxo-7,8-dihydropyrido[2,3-d]pyrimidin-6-yl)acetamide]: the inhibition constant (Ki) (in general, the equilibrium dissociation constant of an inhibitor or competing ligand from its target) at CDK2/Cyclin E1 was 27.8 nM; at CDK6/Cyclin D1, 83.3 nM.
The like results for `CS(=O)(=O)N1CCC(Nc2ncc3ccc(=O)n([C@H]4CC[C@@H](O)CC4)c3n2)CC1` [Example 215, 8-(cis-4-hydroxycyclohexyl)-2-{[1-(methylsulfonyl)piperidin-4-yl]amino}pyrido[2,3-d]pyrimidin-7(8H)-one] were, in that order, 1.57 nM and 2.84 nM.
Consider `C[C@@H]1[C@H](O)CC[C@H]1n1c(=O)c(Cl)cc2cnc(NC3CCN(S(C)(=O)=O)CC3)nc21` (single isomer, unassigned) [Example 203, (−)-6-chloro-8-[(1R*,2S*,3R*)-3-hydroxy-2-methylcyclopentyl]-2-{[1-(methylsulfonyl)piperidin-4-yl]amino}pyrido[2,3-d]pyrimidin-7(8H)-one], for which the Ki turned out to be 0.51 nM on CDK2/Cyclin E1 and 1.53 nM at CDK6/Cyclin D1.
In the case of `Cc1cc2cnc(NC3CCN(S(C)(=O)=O)CC3)nc2n([C@@H]2CC[C@@H](O)C2)c1=O` (single isomer, unassigned) [Example 167, (−)-8-[(1R*,3R*)-3-hydroxycyclopentyl]-6-methyl-2-{[1-(methylsulfonyl)piperidin-4-yl]amino}pyrido[2,3-d]pyrimidin-7(8H)-one], the Ki was found to be 1.47 nM at CDK2/Cyclin E1 and 1.63 nM at CDK6/Cyclin D1.
Regarding `CNS(=O)(=O)N1CCC(Nc2ncc3cc(C)c(=O)n(C4CCCC4)c3n2)CC1` [Example 23, 4-[(8-cyclopentyl-6-methyl-7-oxo-7,8-dihydropyrido[2,3-d]pyrimidin-2-yl)amino]-N-methylpiperidine-1-sulfonamide], the figures for the Ki at CDK2/Cyclin E1 and on CDK6/Cyclin D1 were 0.78 nM and 0.62 nM, respectively.
The like results for `C[C@@H]1[C@H](O)CCC[C@H]1n1c(=O)ccc2cnc(NC3CCN(S(C)(=O)=O)CC3)nc21` (single isomer, unassigned) [Example 221, (−)-8-[(1S*,2R*,3S*)-3-hydroxy-2-methylcyclohexyl]-2-{[1-(methylsulfonyl)piperidin-4-yl]amino}pyrido[2,3-d]pyrimidin-7(8H)-one] were, in that order, 0.13 nM and 0.36 nM.
The corresponding values for `COCc1cc2cnc(NC3CCN(S(C)(=O)=O)CC3)nc2n([C@H]2CCC[C@H]2C)c1=O` [Example 49, 6-(methoxymethyl)-8-[(1S,2R)-2-methylcyclopentyl]-2-{[1-(methylsulfonyl)piperidin-4-yl]amino}pyrido[2,3-d]pyrimidin-7(8H)-one] are 4.43 nM and 1.63 nM.
For `C[C@]1(O)CCC[C@@H]1n1c(=O)ccc2cnc(NC3CCN(S(=O)(=O)CC4CC4)CC3)nc21` (single isomer, unassigned) [Example 91, (+)-2-({1-[(cyclopropylmethyl)sulfonyl]piperidin-4-yl}amino)-8-[(1R*,2R*)-2-hydroxy-2-methylcyclopentyl]pyrido[2,3-d]pyrimidin-7(8H)-one], the Ki was 3.01 nM on CDK2/Cyclin E1 and 2.72 nM at CDK6/Cyclin D1.
With `CS(=O)(=O)N1CCC(Nc2ncc3cc(N)c(=O)n(C4CCCC4)c3n2)CC1` [Example 28, 6-amino-8-cyclopentyl-2-{[1-(methylsulfonyl)piperidin-4-yl]amino}pyrido[2,3-d]pyrimidin-7(8H)-one], the Ki came out at 1.88 nM on CDK2/Cyclin E1 and 1.2 nM on CDK6/Cyclin D1.
The like results for `Cc1cc2cnc(NC3CCN(S(N)(=O)=O)CC3)nc2n(C2CCCC2)c1=O` [Example 25, 4-[(8-cyclopentyl-6-methyl-7-oxo-7,8-dihydropyrido[2,3-d]pyrimidin-2-yl)amino]piperidine-1-sulfonamide] were, in that order, 0.22 nM and 0.23 nM.
The like results for `CS(=O)(=O)N1CCC(Nc2ncc3cc(Cl)c(=O)n([C@@H]4CCC[C@@H](O)C4)c3n2)CC1` (single isomer, unassigned) [Example 34, (+)-6-chloro-8-[(1R*,3R*)-3-hydroxycyclohexyl]-2-{[1-(methylsulfonyl)piperidin-4-yl]amino}pyrido[2,3-d]pyrimidin-7(8H)-one] were, in that order, 1.34 nM and 0.42 nM.
As for `CNS(=O)(=O)N1CCC(Nc2ncc3ccc(=O)n(C4CCCC4)c3n2)CC1` [Example 11, 4-[(8-cyclopentyl-7-oxo-7,8-dihydropyrido[2,3-d]pyrimidin-2-yl)amino]-N-methylpiperidine-1-sulfonamide], the values for the Ki at CDK2/Cyclin E1 and on CDK6/Cyclin D1 were 0.67 nM and 2.99 nM, respectively.
The corresponding values for `CS(=O)(=O)N1CCC(Nc2ncc3ccc(=O)n([C@@H]4C[C@@H](O)CC[C@H]4F)c3n2)CC1` (single isomer, unassigned) [Example 218, (−)-8-[(1S*,2S*,5R*)-2-fluoro-5-hydroxycyclohexyl]-2-{[1-(methylsulfonyl)piperidin-4-yl]amino}pyrido[2,3-d]pyrimidin-7(8H)-one] are 6.28 nM and 14.3 nM.
The like results for `Cc1cc2cnc(NC3CCN(S(=O)(=O)CC4CC4)CC3)nc2n([C@H]2CCC[C@]2(C)O)c1=O` (single isomer, unassigned) [Example 117, (+)-2-({1-[(cyclopropylmethyl)sulfonyl]piperidin-4-yl}amino)-8-[(1R*,2R*)-2-hydroxy-2-methylcyclopentyl]-6-methylpyrido[2,3-d]pyrimidin-7(8H)-one] were, in that order, 1.74 nM and 2.46 nM.
The corresponding values for `CS(=O)(=O)CS(=O)(=O)N1CCC(Nc2ncc3ccc(=O)n(C4CCCC4)c3n2)CC1` [Example 18, 8-cyclopentyl-2-[(1-{[(methylsulfonyl)methyl]sulfonyl}piperidin-4-yl)amino]pyrido[2,3-d] pyrimidin-7(8H)-one] are 1.19 nM and 2.44 nM.
With `C[C@H]1CCC[C@H]1n1c(=O)c(CCO)cc2cnc(NC3CCN(S(C)(=O)=O)CC3)nc21` [Example 40, 6-(2-hydroxyethyl)-8-[(1R,2S)-2-methylcyclopentyl]-2-{[1-(methylsulfonyl)piperidin-4-yl]amino}pyrido[2,3-d]pyrimidin-7(8H)-one], the Ki on CDK2/Cyclin E1 was found to be 0.08 nM; on CDK6/Cyclin D1, 0.14 nM.
As for `CC(C)(O)CS(=O)(=O)N1CCC(Nc2ncc3ccc(=O)n([C@@H]4CCC[C@@]4(C)O)c3n2)CC1` [Example 189, 8-[(1R,2R)-2-hydroxy-2-methylcyclopentyl]-2-({1-[(2-hydroxy-2-methylpropyl)sulfonyl]piperidin-4-yl}amino)pyrido[2,3-d]pyrimidin-7(8H)-one], the Ki was 1.2 nM at CDK2/Cyclin E1 and 1.98 nM at CDK6/Cyclin D1.
The corresponding values for `COCCc1cc2cnc(N[C@H]3CCN(S(C)(=O)=O)C[C@@H]3F)nc2n(C2CCCC2)c1=O` (single isomer, unassigned) [Example 158, (−)-8-cyclopentyl-2-{[(3S*,4S*)-3-fluoro-1-(methylsulfonyl)piperidin-4-yl]amino}-6-(2-methoxyethyl)pyrido[2,3-d]pyrimidin-7(8H)-one] are 3.89 nM and 0.66 nM.
The corresponding values for `COCCS(=O)(=O)N1CCC(Nc2ncc3cc(C)c(=O)n([C@H]4CCC[C@]4(C)O)c3n2)CC1` (single isomer, unassigned) [Example 115, (+)-8-[(1R*,2R*)-2-hydroxy-2-methylcyclopentyl]-2-({1-[(2-methoxyethyl)sulfonyl]piperidin-4-yl}amino)-6-methylpyrido[2,3-d]pyrimidin-7(8H)-one] are 2.39 nM and 3.17 nM.
The corresponding values for `C[C@H]1[C@@H](O)CC[C@@H]1n1c(=O)ccc2cnc(NC3CCN(S(C)(=O)=O)CC3)nc21` (single isomer, unassigned) [Example 202, (+)-8-[(1R*,2S*,3R*)-3-hydroxy-2-methylcyclopentyl]-2-{[1-(methylsulfonyl)piperidin-4-yl]amino}pyrido[2,3-d]pyrimidin-7(8H)-one] are 0.8 nM and 2.44 nM.
On to `CS(=O)(=O)N1CCC(Nc2ncc3ccc(=O)n([C@H]4C[C@H](O)CC[C@@H]4F)c3n2)CC1` (single isomer, unassigned) [Example 217, (+)-8-[(1S*,2S*,5R*)-2-fluoro-5-hydroxycyclohexyl]-2-{[1-(methylsulfonyl)piperidin-4-yl]amino}pyrido[2,3-d]pyrimidin-7(8H)-one], for which the figures for the Ki on CDK2/Cyclin E1 and at CDK6/Cyclin D1 were 0.55 nM and 2 nM, respectively.
The corresponding values for `CC(F)(F)CNS(=O)(=O)N1CCC(Nc2ncc3ccc(=O)n([C@H]4CCC[C@]4(C)O)c3n2)CC1` (single isomer, unassigned) [Example 67, (+)-N-(2,2-difluoropropyl)-4-({8-[(1R*,2R*)-2-hydroxy-2-methylcyclopentyl]-7-oxo-7,8-dihydropyrido[2,3-d]pyrimidin-2-yl}amino)piperidine-1-sulfonamide] are 4.05 nM and 21.6 nM.
The like results for `C[C@]1(O)CCC[C@@H]1n1c(=O)ccc2cnc(NC3CCN(S(=O)(=O)CC(F)(F)F)CC3)nc21` (single isomer, unassigned) [Example 87, (+)-8-[(1R*,2R*)-2-hydroxy-2-methylcyclopentyl]-2-({1-[(2,2,2-trifluoroethyl)sulfonyl]piperidin-4-yl}amino)pyrido[2,3-d]pyrimidin-7(8H)-one] were, in that order, 4.38 nM and 8.23 nM.
